From US20240270741A1 (Cogent Biosciences, Inc., priority 2023, published 2024)

Molecular target: FGFR2 (Homo sapiens, UniProt P21802)
Assay: FGFR wild type enzyme assay (HTRF KinEASE-TK), FGFR2
Settings: Enz FGFR2 (nM), FGFR2 wild type enzyme assay

Sequence of FGFR2 (P21802 399-821 limits assumed): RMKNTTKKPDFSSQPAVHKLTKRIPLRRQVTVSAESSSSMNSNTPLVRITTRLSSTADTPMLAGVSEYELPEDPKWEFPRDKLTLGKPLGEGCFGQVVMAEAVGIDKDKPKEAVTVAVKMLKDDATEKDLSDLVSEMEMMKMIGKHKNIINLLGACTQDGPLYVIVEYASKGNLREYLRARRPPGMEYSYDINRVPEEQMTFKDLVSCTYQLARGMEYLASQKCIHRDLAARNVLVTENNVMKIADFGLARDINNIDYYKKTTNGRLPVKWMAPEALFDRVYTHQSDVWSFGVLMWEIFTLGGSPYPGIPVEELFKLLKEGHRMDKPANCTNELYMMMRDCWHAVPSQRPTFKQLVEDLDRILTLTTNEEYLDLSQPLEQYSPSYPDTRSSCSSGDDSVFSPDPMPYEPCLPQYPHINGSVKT

SMILES	IC50 [nM]
Cc1c(-c2cc(Sc3ccc(F)cc3C#N)c3c(C#N)cnn3c2)cnn1C[C@H](O)CO [Example 531, (S)-4-((2-cyano-4-fluorophenyl)thio)-6-(1-(2,3-dihydroxypropyl)-5-methyl-1H-pyrazol-4-yl)pyrazolo[1,5-a]pyridine-3-carbonitrile]	11
C[C@H](O)C(=O)N1CCC[C@H](n2cc(-c3cc(Sc4ccccc4C#N)c4c(C#N)cnn4c3)cn2)C1 [Example 532, 4-((2-cyanophenyl)thio)-6-(1-((S)-1-((S)-2-hydroxypropanoyl)piperidin-3-yl)-1H-pyrazol-4-yl)pyrazolo[1,5-a]pyridine-3-carbonitrile]	0.5
C[C@H](O)C(=O)N1CCC[C@@H](n2cc(-c3cc(Sc4ccccc4C#N)c4c(C#N)cnn4c3)cn2)C1 [Example 533, 4-((2-cyanophenyl)thio)-6-(1-((R)-1-((S)-2-hydroxypropanoyl)piperidin-3-yl)-1H-pyrazol-4-yl)pyrazolo[1,5-a]pyridine-3-carbonitrile]	1
N#Cc1ccccc1Sc1cc(-c2cnn([C@@H]3CCCNC3)c2)cn2ncc(C#N)c12 [Example 535, (R)-4-((2-cyanophenyl)thio)-6-(1-(piperidin-3-yl)-1H-pyrazol-4-yl)pyrazolo[1,5-a]pyridine-3-carbonitrile]	0.4
CC(=O)N1CCC[C@@H](n2cc(-c3cc(Sc4ccccc4C#N)c4c(C#N)cnn4c3)cn2)C1 [Example 537, (R)-6-(1-(1-acetylpiperidin-3-yl)-1H-pyrazol-4-yl)-4-((2-cyanophenyl)thio)pyrazolo [1,5-a]pyridine-3-carbonitrile]	1
COCC(=O)N1CCC(n2cc(-c3cc(Sc4ccccc4C#N)c4c(C#N)cnn4c3)cn2)CC1 [Example 538, 4-((2-cyanophenyl)thio)-6-(1-(1-(2-methoxyacetyl)piperidin-4-yl)-1H-pyrazol-4-yl)pyrazolo[1,5-a]pyridine-3-carbonitrile]	0.3
Cc1ccc(-c2cc(Sc3ccccc3C#N)c3c(C#N)cnn3c2)cn1 [Example 539]	9
N#Cc1ccccc1Sc1cc(-c2cnn(C3CCOCC3)c2)cn2ncc(C#N)c12 [Example 542, 4-((2-cyanophenyl)thio)-6-(1-(tetrahydro-2H-pyran-4-yl)-1H-pyrazol-4-yl)pyrazolo[1,5-a]pyridine-3-carbonitrile]	0.4
Cc1c(-c2cc(Sc3ccc(F)cc3C#N)c3c(C#N)cnn3c2)cnn1[C@H]1CC[C@H](OP(=O)(O)O)CC1 [Example 543, [4-[4-[3-cyano-4-(2-cyano-4-fluoro-phenyl)sulfanyl-pyrazolo[1,5-a]pyridin-6-yl]-5-methylpyrazol-1-yl]cyclohexyl] dihydrogen phosphate]	2

Now from value to compound:

IC50 [nM]	SMILES
0.5	N#Cc1ccccc1Sc1cc(-c2cnn([C@@H]3CCCN(CCO)C3)c2)cn2ncc(C#N)c12 [Example 534, (R)-4-((2-cyanophenyl)thio)-6-(1-(1-(2-hydroxyethyl)piperidin-3-yl)-1H-pyrazol-4-yl)pyrazolo[1,5-a]pyridine-3-carbonitrile]
1	N#Cc1ccccc1Sc1cc(-c2cnn([C@@H]3CCCN(C(=O)CO)C3)c2)cn2ncc(C#N)c12 [Example 536, (R)-4-((2-cyanophenyl)thio)-6-(1-(1-(2-hydroxyacetyl)piperidin-3-yl)-1H-pyrazol-4-yl)pyrazolo[1,5-a]pyridine-3-carbonitrile]
1	CNC(=O)Cn1cc(-c2cc(Sc3ccccc3C#N)c3c(C#N)cnn3c2)cn1 [Example 540]
1	CN(C)C(=O)Cn1cc(-c2cc(Sc3ccccc3C#N)c3c(C#N)cnn3c2)cn1 [Example 541, 2-(4-(3-cyano-4-((2-cyanophenyl)thio)pyrazolo [1,5-a]pyridin-6-yl)-1H-pyrazol-1-yl)-N,N-dimethylacetamide]
1	N#Cc1ccccc1Sc1cc(-c2cnn(C[C@H](O)CO)c2)cn2ncc(C#N)c12 [Example 544, (S)-4-((2-cyanophenyl)thio)-6-(1-(2,3-dihydroxypropyl)-1H-pyrazol-4-yl)pyrazolo[1,5-a]pyridine-3-carbonitrile]
